Legend:
[1] = system: endogenous target monocytes in human PBMC; assay: PBMC ex vivo monocyte depletion flow cytometry assay (Example 200); format: cell-based; conditions: with anti-cotinine antibody (SEQ ID NO: 11/12), 18-24 hours, EC50 in molar, read-out: Ex Vivo Depletion Assay pEC50 (converted)
How it was run: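 Monocyte depletion is reported as pEC50, averaged or given individually across runs, and read by flow cytometry staining CD45, CD14 and CD4 with a viability dye. Compounds, diluted four-fold over 11 points from 1 mM DMSO stocks, were combined with 30 μg/mL Fc-enhanced anti-cotinine antibody and human PBMC, then incubated 18-24 h at 37° C.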

[2] = molecular target: human alpha1 nicotinic acetylcholine (nACh) receptor (Homo sapiens, UniProt P02708); assay: Nicotinic acetylcholine receptor antagonism assay, IONFlux automated patch clamp (Example 203); format: cell-based; conditions: for IC50: antagonism of ACh-stimulated human alpha1 nAChR current, patch clamp; for Emax at 100 µM: maximum percentage antagonism at maximum concentration tested 100 μM
How it was run: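 Cells expressing human α1 nAChR were incubated with a compound dose response (top 10 μM or 100 μM), then stimulated with ACh (10 mM), and peak current was read by automated patch clamp. % inhibition was taken against ACh-alone control, corrected for vehicle and run-down, and fit non-linearly for IC50; runs were averaged.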

Sequence of human alpha1 nicotinic acetylcholine (nACh) receptor (P02708 21-457): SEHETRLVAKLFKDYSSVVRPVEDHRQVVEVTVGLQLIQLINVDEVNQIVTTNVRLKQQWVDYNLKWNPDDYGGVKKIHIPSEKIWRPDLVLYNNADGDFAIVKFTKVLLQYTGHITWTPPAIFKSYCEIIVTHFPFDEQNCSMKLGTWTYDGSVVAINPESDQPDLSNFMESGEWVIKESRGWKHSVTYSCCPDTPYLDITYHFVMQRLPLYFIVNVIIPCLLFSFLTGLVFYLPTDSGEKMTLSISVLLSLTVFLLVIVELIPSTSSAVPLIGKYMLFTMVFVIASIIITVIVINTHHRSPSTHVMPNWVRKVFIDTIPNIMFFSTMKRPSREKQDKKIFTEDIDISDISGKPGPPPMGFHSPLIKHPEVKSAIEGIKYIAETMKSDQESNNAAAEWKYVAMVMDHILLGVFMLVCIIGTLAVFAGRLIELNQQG
Sequence of human alpha1 nicotinic acetylcholine (nACh) receptor (P11230 24-501 partner): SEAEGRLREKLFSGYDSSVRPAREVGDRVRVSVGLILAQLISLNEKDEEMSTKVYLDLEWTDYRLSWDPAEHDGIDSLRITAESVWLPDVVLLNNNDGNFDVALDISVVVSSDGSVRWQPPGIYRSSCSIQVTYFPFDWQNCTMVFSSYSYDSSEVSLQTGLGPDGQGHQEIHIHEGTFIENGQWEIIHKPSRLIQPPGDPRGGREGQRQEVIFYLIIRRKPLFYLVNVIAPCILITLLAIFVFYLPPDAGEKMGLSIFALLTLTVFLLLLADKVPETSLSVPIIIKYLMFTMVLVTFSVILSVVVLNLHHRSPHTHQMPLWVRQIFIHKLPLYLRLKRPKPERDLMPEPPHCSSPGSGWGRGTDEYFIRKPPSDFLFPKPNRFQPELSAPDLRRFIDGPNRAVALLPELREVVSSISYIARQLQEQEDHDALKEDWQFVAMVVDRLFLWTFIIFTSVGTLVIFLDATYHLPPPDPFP
Sequence of human alpha1 nicotinic acetylcholine (nACh) receptor (Q07001 22-517 partner): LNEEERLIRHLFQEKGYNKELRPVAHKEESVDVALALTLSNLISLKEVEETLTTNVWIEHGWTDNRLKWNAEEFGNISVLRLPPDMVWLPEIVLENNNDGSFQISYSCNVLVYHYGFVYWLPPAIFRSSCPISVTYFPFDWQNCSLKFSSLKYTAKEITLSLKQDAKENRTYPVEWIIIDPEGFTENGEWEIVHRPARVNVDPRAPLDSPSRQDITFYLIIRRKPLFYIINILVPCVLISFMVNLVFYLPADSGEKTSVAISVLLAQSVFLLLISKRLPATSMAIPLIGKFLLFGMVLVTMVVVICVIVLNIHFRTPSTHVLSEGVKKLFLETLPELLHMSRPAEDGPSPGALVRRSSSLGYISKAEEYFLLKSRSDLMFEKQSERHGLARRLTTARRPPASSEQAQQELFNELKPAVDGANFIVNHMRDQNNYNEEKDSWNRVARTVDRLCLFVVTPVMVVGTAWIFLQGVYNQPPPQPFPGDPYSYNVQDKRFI

Row | Structure (SMILES) | EC50 [1] [nM] | IC50 [2] [nM] | Emax at 100 µM ([2]; read-out: Maximum Response) [%] | Emax at 33.33 µM ([2]; maximum percentage antagonism at maximum concentration tested 33.33 μM, read-out: Maximum Response) [%] | Emax at 10 µM ([2]; maximum percentage antagonism at maximum concentration tested 10 μM, read-out: Maximum Response) [%]
1 | CC(C)N(C)[C@@H]1CC[C@H](N2CC[C@H](Nc3ncnc4ccc(C(F)(F)F)cc34)C2=O)[C@H](NC(=O)[C@H]2CC[C@H](NC(=O)CCCO[C@H]3CC[C@H](OCCNC(=O)[C@H]4CC(=O)N(C)[C@@H]4c4cccnc4)CC3)CC2)C1 [Example 1, (2S,3S)-N-(2-(((1R,4S)-4-(4-(((1R,4R)-4-(((1R,2S,5R)-5-(Isopropyl(methyl)amino)-2-((S)-2-oxo-3-((6-(trifluoromethyl)quinazolin-4-yl)amino)pyrrolidin-1-yl)cyclohexyl)carbamoyl)cyclohexyl)amino)-4-oxobutoxy)cyclohexyl)oxy)ethyl)-1-methyl-5-oxo-2-(pyridin-3-yl)pyrrolidine-3-carboxamide] | 1.58 | 84600 | 25.6 |  | 
2 | CC(C)N(C)[C@@H]1CC[C@H](N2CC[C@H](Nc3ncnc4ccc(C(F)(F)F)cc34)C2=O)[C@H](NC(=O)[C@H]2CC[C@@H](NC(=O)CCCO[C@H]3CC[C@H](OCCNC(=O)[C@H]4CC(=O)N(C)[C@@H]4c4cccnc4)CC3)CC2)C1 [Example 5, (2S,3S)-N-(2-(((1R,4S)-4-(4-(((1S,4S)-4-(((1R,2S,5R)-5-(Isopropyl(methyl)amino)-2-((S)-2-oxo-3-((6-(trifluoromethyl)quinazolin-4-yl)amino)pyrrolidin-1-yl)cyclohexyl)carbamoyl)cyclohexyl)amino)-4-oxobutoxy)cyclohexyl)oxy)ethyl)-1-methyl-5-oxo-2-(pyridin-3-yl)pyrrolidine-3-carboxamide] | 0.398 | ≥ 100000 | 40.5 |  | 
3 | CC(C)N(C)[C@@H]1CC[C@H](N2CC[C@H](Nc3ncnc4ccc(C(F)(F)F)cc34)C2=O)[C@H](NC(=O)CCOCCNC(=O)CCCO[C@H]2CC[C@H](OCCNC(=O)[C@H]3CC(=O)N(C)[C@@H]3c3cccnc3)CC2)C1 [Example 7, (2S,3S)-N-(2-(((1r,4S)-4-(4-((2-(3-(((1R,2S,5R)-5-(Isopropyl(methyl)amino)-2-((S)-2-oxo-3-((6-(trifluoromethyl)quinazolin-4-yl)amino)pyrrolidin-1-yl)cyclohexyl)amino)-3-oxopropoxy)ethyl)amino)-4-oxobutoxy)cyclohexyl)oxy)ethyl)-1-methyl-5-oxo-2-(pyridin-3-yl)pyrrolidine-3-carboxamide] | 0.501 | 13700 | 95 |  | 
4 | CN1C(=O)C[C@H](C(=O)NCCO[C@H]2CC[C@H](OCCCC(=O)N[C@H]3CC[C@H](C(=O)N[C@@H]4C[C@H](NC(C)(C)C)CC[C@@H]4N4CC[C@H](Nc5ncnc6ccc(C(F)(F)F)cc56)C4=O)CC3)CC2)[C@H]1c1cccnc1 [Example 10, (2S,3S)-N-(2-(((1R,4S)-4-(4-(((1R,4R)-4-(((1R,2S,5R)-5-(tert-Butylamino)-2-((S)-2-oxo-3-((6-(trifluoromethyl)quinazolin-4-yl)amino)pyrrolidin-1-yl)cyclohexyl)carbamoyl)cyclohexyl)amino)-4-oxobutoxy)cyclohexyl)oxy)ethyl)-1-methyl-5-oxo-2-(pyridin-3-yl)pyrrolidine-3-carboxamide] |  | ≥ 33300 |  | 48 | 
5 | CC(C)N(C)[C@@H]1CC[C@H](N2CC[C@H](Nc3ncnc4ccc(C(F)(F)F)cc34)C2=O)[C@H](NC(=O)[C@H]2CC[C@@H](NC(=O)CCOCCOCCNC(=O)CCNC(=O)[C@H]3CC(=O)N(C)[C@@H]3c3cccnc3)CC2)C1 [Example 16, (2S,3S)-N-(3-((2-(2-(3-(((1S,4s)-4-(((1R,2S,5R)-5-(Isopropyl(methyl)amino)-2-((S)-2-oxo-3-((6-(trifluoromethyl)quinazolin-4-yl)amino)pyrrolidin-1-yl)cyclohexyl)carbamoyl)cyclohexyl)amino)-3-oxopropoxy)ethoxy)ethyl)amino)-3-oxopropyl)-1-methyl-5-oxo-2-(pyridin-3-yl)pyrrolidine-3-carboxamide] | 0.316 | ≥ 100000 | 47.8 |  | 
6 | CC(C)N(C)[C@@H]1CC[C@H](N2CC[C@H](Nc3ncnc4ccc(C(F)(F)F)cc34)C2=O)[C@H](NC(=O)[C@H]2CC[C@@H](NC(=O)CCCC(=O)NCCCOCCCNC(=O)[C@H]3CC(=O)N(C)[C@@H]3c3cccnc3)CC2)C1 [Example 18, N^1-((1S,4s)-4-(((1R,2S,5R)-5-(Isopropyl(methyl)amino)-2-((S)-2-oxo-3-((6-(trifluoromethyl)quinazolin-4-yl)amino)pyrrolidin-1-yl)cyclohexyl)carbamoyl)cyclohexyl)-N^5-(3-(3-((2S,3S)-1-methyl-5-oxo-2-(pyridin-3-yl)pyrrolidine-3-carboxamido)propoxy)propyl)glutaramide] | 0.501 | ≥ 100000 | 44.9 |  | 
7 | CC(C)N(C)[C@@H]1CC[C@H](N2CC[C@H](Nc3ncnc4ccc(C(F)(F)F)cc34)C2=O)[C@H](NC(=O)[C@H]2CC[C@H](NC(=O)CCCC(=O)NCCCOCCCNC(=O)[C@H]3CC(=O)N(C)[C@@H]3c3cccnc3)CC2)C1 [Example 19, N1-((1R,4r)-4-(((1R,2S,5R)-5-(Isopropyl(methyl)amino)-2-((S)-2-oxo-3-((6-(trifluoromethyl)quinazolin-4-yl)amino)pyrrolidin-1-yl)cyclohexyl)carbamoyl)cyclohexyl)-N5-(3-(3-((2S,3S)-1-methyl-5-oxo-2-(pyridin-3-yl)pyrrolidine-3-carboxamido)propoxy)propyl)glutaramide] | 0.794 | ≥ 100000 | 34.2 |  | 
8 | CN1C(=O)C[C@H](C(=O)NCCOCCOCCOCCC(=O)N[C@H]2CC[C@@H](C(=O)N[C@@H]3C[C@H](NC(C)(C)C)CC[C@@H]3N3CC[C@H](Nc4ncnc5ccc(C(F)(F)F)cc45)C3=O)CC2)[C@H]1c1cccnc1 [Example 23, (2S,3S)-N-(2-(2-(2-(3-(((1S,4s)-4-(((1R,2S,5R)-5-(tert-Butylamino)-2-((S)-2-oxo-3-((6-(trifluoromethyl)quinazolin-4-yl)amino)pyrrolidin-1-yl)cyclohexyl)carbamoyl)cyclohexyl)amino)-3-oxopropoxy)ethoxy)ethoxy)ethyl)-1-methyl-5-oxo-2-(pyridin-3-yl)pyrrolidine-3-carboxamide] | 2 | 85200 | 50.5 |  | 
9 | CC(C)N(C)[C@@H]1CC[C@H](N2CC[C@H](Nc3ncnc4ccc(C(F)(F)F)cc34)C2=O)[C@H](NC(=O)[C@H]2C[C@@H](NC(=O)CCOCCOCCOCCNC(=O)[C@H]3CC(=O)N(C)[C@@H]3c3cccnc3)C2)C1 [Example 24, (2S,3S)-N-(2-(2-(2-(3-(((1S,3s)-3-(((1R,2S,5R)-5-(Isopropyl(methyl)amino)-2-((S)-2-oxo-3-((6-(trifluoromethyl)quinazolin-4-yl)amino)pyrrolidin-1-yl)cyclohexyl)carbamoyl)cyclobutyl)amino)-3-oxopropoxy)ethoxy)ethoxy)ethyl)-1-methyl-5-oxo-2-(pyridin-3-yl)pyrrolidine-3-carboxamide] | 1.26 | 85300 | 59.5 |  | 
10 | CC(C)N(C)[C@@H]1CC[C@H](N2CC[C@H](Nc3ncnc4ccc(C(F)(F)F)cc34)C2=O)[C@H](NC(=O)[C@H]2CC[C@@H](NC(=O)CCOCCOCCOCCNC(=O)[C@H]3CC(=O)N(C)[C@@H]3c3cccnc3)CC2)C1 [Example 28, (2S,3S)-N-(2-(2-(2-(3-(((1S,4s)-4-(((1R,2S,5R)-5-(Isopropyl(methyl)amino)-2-((S)-2-oxo-3-((6-(trifluoromethyl)quinazolin-4-yl)amino)pyrrolidin-1-yl)cyclohexyl)carbamoyl)cyclohexyl)amino)-3-oxopropoxy)ethoxy)ethoxy)ethyl)-1-methyl-5-oxo-2-(pyridin-3-yl)pyrrolidine-3-carboxamide] | 1 | 40900 | 69.9 |  | 
11 | CC(C)N(C)[C@@H]1CC[C@H](N2CC[C@H](Nc3ncnc4ccc(C(F)(F)F)cc34)C2=O)[C@H](NC(=O)[C@H]2CC[C@H](NC(=O)CCOCCOCCOCCNC(=O)[C@H]3CC(=O)N(C)[C@@H]3c3cccnc3)CC2)C1 [Example 30, (2S,3S)-N-(2-(2-(2-(3-(((1R,4r)-4-(((1R,2S,5R)-5-(Isopropyl(methyl)amino)-2-((S)-2-oxo-3-((6-(trifluoromethyl)quinazolin-4-yl)amino)pyrrolidin-1-yl)cyclohexyl)carbamoyl)cyclohexyl)amino)-3-oxopropoxy)ethoxy)ethoxy)ethyl)-1-methyl-5-oxo-2-(pyridin-3-yl)pyrrolidine-3-carboxamide] | 2.51 | ≥ 10000 |  |  | 5.4
12 | CC(C)N(C)[C@@H]1CC[C@H](N2CC[C@H](Nc3ncnc4ccc(C(F)(F)F)cc34)C2=O)[C@H](NC2CCN(C(=O)CCOCCOCCOCCOCCNC(=O)[C@H]3CC(=O)N(C)[C@@H]3c3cccnc3)CC2)C1 [Example 69, (2S,3S)-N-(15-(4-(((1R,2S,5R)-5-(Isopropyl(methyl)amino)-2-((S)-2-oxo-3-((6-(trifluoromethyl)quinazolin-4-yl)amino)pyrrolidin-1-yl)cyclohexyl)amino)piperidin-1-yl)-15-oxo-3,6,9,12-tetraoxapentadecyl)-1-methyl-5-oxo-2-(pyridin-3-yl)pyrrolidine-3-carboxamide] | 1.58 |  |  |  | 
